Measurements as given in ChEMBL document CHEMBL1201862, “PubChem BioAssay data set” (2004).
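Tested at 5 concentrations; 48 h exposure; 96-well plates; endpoints linearly interpolated, else capped at highest concentration. GI50 is the concentration that inhibits growth by half.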 Calls of active or inactive are those of the source. Rule as the data show it: active = GI50 up to about 1.1 µM and inactive = higher.

Tests used:
Experiment in all cases: NCI tumour cell line growth inhibition, 48 h
[1] = tested on: 786-0
[2] = tested on: A498
[3] = tested on: A549
[4] = tested on: ACHN
[5] = tested on: BT-549
[6] = tested on: CAKI-1
[7] = tested on: CCRF-CEM
[8] = tested on: COLO 205
[9] = tested on: DU-145
[10] = tested on: EKVX
[11] = tested on: HCC 2998
[12] = tested on: HCT-116
[13] = tested on: HCT-15
[14] = tested on: HL-60
[15] = tested on: HOP-62
[16] = tested on: HOP-92
[17] = tested on: HT-29
[18] = tested on: Hs-578T
[19] = tested on: IGROV-1
[20] = tested on: K562
[21] = tested on: KM12
[22] = tested on: LOX IMVI
[23] = tested on: M14
[24] = tested on: MCF7
[25] = tested on: MDA-MB-231
[26] = tested on: MDA-MB-435
[27] = tested on: MDA-N
[28] = tested on: MOLT-4
[29] = tested on: Malme-3M
[30] = tested on: NCI-H226
[31] = tested on: NCI-H23
[32] = tested on: NCI-H460
[33] = tested on: NCI-H522
[34] = tested on: NCI/ADR-RES
[35] = tested on: OVCAR-3
[36] = tested on: OVCAR-4
[37] = tested on: OVCAR-5
[38] = tested on: OVCAR-8
[39] = tested on: PC-3
[40] = tested on: RPMI-8226
[41] = tested on: RXF 393
[42] = tested on: SF-268
[43] = tested on: SF-295
[44] = tested on: SF-539
[45] = tested on: SK-MEL-28
[46] = tested on: SK-MEL-2
[47] = tested on: SK-MEL-5
[48] = tested on: SK-OV-3
[49] = tested on: SN12C
[50] = tested on: SNB-19
[51] = tested on: SR
[52] = tested on: SW-620
[53] = tested on: T47D
[54] = tested on: TK-10
[55] = tested on: U-251
[56] = tested on: UACC-257
[57] = tested on: UACC-62
[58] = tested on: UO-31
[59] = tested on: SNB-75

Measured: GI50

CN(C)CCCN1c2ccccc2Sc2ccc3ccccc3c21
active: [14] < 0.01 µM | [51] 1.09 µM
inactive: [1] 11 µM | [2] 5.71 µM | [3] 13.2 µM | [4] 8.3 µM | [5] 13.1 µM | [6] 5.13 µM | [7] 2.23 µM | [8] 4.56 µM | [9] 12.8 µM | [10] 10.7 µM | [11] 1.53 µM | [12] 10.2 µM | [15] 12 µM | [16] 5.52 µM | [17] 3.52 µM | [18] 8.73 µM | [19] 8.67 µM | [20] 1.86 µM | [21] 6.58 µM | [22] 4.91 µM | [23] 1.79 µM | [24] 5.75 µM | [25] 3.15 µM | [26] 3.1 µM | [27] 4.12 µM | [28] 2.92 µM | [29] 6.49 µM | [30] 6.58 µM | [31] 14.3 µM | [32] 2.79 µM | [33] 7.94 µM | [34] 7.82 µM | [35] 8.49 µM | [36] 5.35 µM | [37] 11.3 µM | [38] 12.7 µM | [39] 3.75 µM | [40] 2.48 µM | [41] 1.65 µM | [42] 9.06 µM | [43] 13.2 µM | [44] 16.1 µM | [45] 2.08 µM | [46] 5.79 µM | [47] 4.17 µM | [48] 14.2 µM | [49] 9.06 µM | [50] 14.8 µM | [52] 8.3 µM | [53] 2.05 µM | [54] 4.45 µM | [55] 7.23 µM | [56] 1.84 µM | [57] 4.61 µM | [58] 4.36 µM
6.43 µM: [13]

N#C[C@@H](c1nc2ccccc2s1)c1ncccc1[N+](=O)[O-]
inactive: [1] 6.19 µM | [2] 10.8 µM | [3] 4.4 µM | [4] 6.07 µM | [5] 5 µM | [6] 19 µM | [7] > 10 µM | [8] 4.31 µM | [9] 6.34 µM | [10] 5.89 µM | [11] 10.6 µM | [12] 5.6 µM | [14] > 10 µM | [15] 10.4 µM | [16] 1.32 µM | [17] 8.3 µM | [18] 5.55 µM | [19] 5.07 µM | [20] > 10 µM | [21] 10.6 µM | [22] 4.97 µM | [23] 8.22 µM | [24] 5.11 µM | [25] 7.83 µM | [26] 13.4 µM | [27] 7.46 µM | [28] 9.12 µM | [29] 2.87 µM | [30] 5.55 µM | [31] 3.7 µM | [32] 5.62 µM | [33] 2.51 µM | [34] 6.46 µM | [35] 2.48 µM | [36] 7.91 µM | [37] 11.9 µM | [38] 9.06 µM | [39] 5.16 µM | [40] 4.9 µM | [41] 5.87 µM | [42] 8.11 µM | [43] 4.1 µM | [45] > 10 µM | [46] 4.12 µM | [47] 3.24 µM | [48] 16.6 µM | [49] 4.82 µM | [50] 3.94 µM | [59] 13.9 µM | [51] 4.67 µM | [52] > 10 µM | [53] 4.18 µM | [54] 4.79 µM | [55] 3.48 µM | [56] 2.12 µM | [57] 3.21 µM | [58] 3.99 µM
7.13 µM: [13]

O=C(CC(C(=O)c1ccco1)c1cccs1)c1cccs1 (stereo unspecified)
inactive: [1] > 100 µM | [2] 96.2 µM | [3] 41.7 µM | [4] 58.7 µM | [5] 46.5 µM | [6] > 100 µM | [8] 51.9 µM | [9] > 100 µM | [10] 24.9 µM | [11] 49.2 µM | [12] 32.9 µM | [14] 27.2 µM | [15] 87.7 µM | [16] 59.4 µM | [17] 37.9 µM | [18] 49.9 µM | [19] 65.6 µM | [21] 40.6 µM | [22] 37.3 µM | [23] 46.6 µM | [24] 46.8 µM | [25] > 100 µM | [26] 35.9 µM | [27] 37.6 µM | [29] 96.2 µM | [30] > 100 µM | [31] 58.5 µM | [32] 80.5 µM | [33] 41.9 µM | [34] 36.1 µM | [35] 40.7 µM | [36] 36 µM | [37] 61.4 µM | [38] 44.7 µM | [39] 42.5 µM | [40] 55.7 µM | [41] 51.3 µM | [42] 57.9 µM | [43] 38.8 µM | [44] > 100 µM | [45] 42.7 µM | [46] 37.4 µM | [47] 32.4 µM | [48] 87.1 µM | [49] 66.8 µM | [50] > 100 µM | [59] 44.4 µM | [51] 34.6 µM | [52] 94.8 µM | [53] 28.2 µM | [54] > 100 µM | [55] 67.5 µM | [56] 24.8 µM | [57] 36.3 µM | [58] 30.7 µM
50.2 µM: [13]

Cc1ccc(S(=O)(=O)NC(=O)NCC(=O)NCC(=O)O)cc1
inactive: [1] > 100 µM | [2] > 100 µM | [3] > 100 µM | [4] > 100 µM | [5] > 100 µM | [6] > 100 µM | [7] > 100 µM | [8] > 100 µM | [9] > 100 µM | [10] > 100 µM | [11] > 100 µM | [12] > 100 µM | [14] > 100 µM | [16] > 100 µM | [17] > 100 µM | [18] > 100 µM | [19] > 100 µM | [20] > 100 µM | [21] > 100 µM | [22] > 100 µM | [23] > 100 µM | [24] > 100 µM | [25] > 100 µM | [26] > 100 µM | [27] > 100 µM | [28] > 100 µM | [29] > 100 µM | [30] > 100 µM | [31] > 100 µM | [32] > 100 µM | [33] > 100 µM | [34] > 100 µM | [35] > 100 µM | [36] > 100 µM | [37] > 100 µM | [38] > 100 µM | [39] > 100 µM | [40] > 100 µM | [41] > 100 µM | [42] > 100 µM | [43] > 100 µM | [44] > 100 µM | [45] > 100 µM | [46] > 100 µM | [47] > 100 µM | [48] > 100 µM | [50] > 100 µM | [59] > 100 µM | [51] > 100 µM | [52] > 100 µM | [53] > 100 µM | [54] > 100 µM | [55] > 100 µM | [56] > 100 µM | [57] > 100 µM | [58] > 100 µM
> 100 µM: [13]

CC1(C)O[C@@H]2COC(=O)[C@@H]2O1
> 100 µM: [13]
inactive: [1] > 100 µM | [2] > 100 µM | [3] > 100 µM | [4] > 100 µM | [5] > 100 µM | [6] > 100 µM | [7] > 100 µM | [8] > 100 µM | [9] > 100 µM | [10] > 100 µM | [11] > 100 µM | [12] > 100 µM | [14] > 100 µM | [16] > 100 µM | [17] > 100 µM | [18] > 100 µM | [19] > 100 µM | [20] > 100 µM | [21] > 100 µM | [22] > 100 µM | [23] > 100 µM | [24] > 100 µM | [25] > 100 µM | [26] > 100 µM | [27] > 100 µM | [28] > 100 µM | [29] > 100 µM | [30] > 100 µM | [31] > 100 µM | [32] > 100 µM | [33] > 100 µM | [34] > 100 µM | [35] > 100 µM | [36] > 100 µM | [37] > 100 µM | [38] > 100 µM | [39] > 100 µM | [41] > 100 µM | [42] > 100 µM | [43] > 100 µM | [44] 2.95 µM | [45] > 100 µM | [46] > 100 µM | [47] > 100 µM | [48] > 100 µM | [49] > 100 µM | [50] > 100 µM | [59] > 100 µM | [51] > 100 µM | [52] > 100 µM | [53] > 100 µM | [54] > 100 µM | [55] > 100 µM | [56] > 100 µM | [57] > 100 µM | [58] > 100 µM
